Assay results taken from EPA's ToxValDB 9.5 (doi:10.2903/j.efsa.2019.5595).
In brackets after ≈: the same amount, converted by molar mass.

Legend:
Tagia sp. = settings: acute; duration: 14 days; mortality
Lepomis macrochirus = settings: acute; oral; feed; mortality
Hyalella azteca = settings: acute; duration: 96 hours; mortality
Cyprinodon variegatus = settings: acute; duration: 96 hours; oral; feed; mortality
Oryctolagus sp. = settings: developmental; development
Cyprinus carpio = settings: chronic/long-term
Oncorhynchus mykiss = settings: acute; duration: 96 hours; oral; feed; mortality
Bibionidae = settings: chronic/long-term; duration: 29 days
Apis mellifera = settings: acute, duration: 48 hours, mortality
Typhlodromus pyri = test: LR50; higher = less toxic; settings: acute; mortality

N#CN=C1SCCN1Cc1ccc(Cl)nc1 [Thiacloprid]
LC50 (Tagia sp.): 105 mg/kg | LC50 (Lepomis macrochirus): > 78.6 µg/mL | NOAEL (Serinus canaria; acute, oral, unspecified, mortality): 15 mg/kg-day | LD50 (Serinus canaria; chronic/long-term): 3.5 mg/kg-day | LD50 (Rattus norvegicus; acute, oral, Fischer 344, mortality): 177 mg/kg-day | NOAEL (Rattus norvegicus; chronic, histopathology: nonneoplastic): 1.2 mg/kg-day | NOAEL (Rattus norvegicus; developmental, development): 2 mg/kg-day | NOAEL (Rattus norvegicus; reproduction developmental, reproduction): 3.3 mg/kg-day | LC50 (Hyalella azteca): > 47.6 µg/mL | LC50 (Cyprinodon variegatus): 19.7 µg/mL (≈ 77.9 µM) | NOAEL (Oryctolagus sp.): 2 mg/kg-day | NOEC (Cyprinus carpio): 4.5 µg/L | LC50 (Oncorhynchus mykiss): > 90.1 µg/mL | NOEC (Bibionidae): 0.63 µg/kg | LD50 (Apis mellifera; dermal): 38.8 µg/piece | LD50 (Apis mellifera; oral, unspecified): 17.3 µg/piece | LR50 (Typhlodromus pyri): 0.331 g/ha
